Among the data in the METLIN SMRT retention time set (Domingo-Almenara et al. 2019) are RP-LC retention time values, retold here.

The data set is described as follows: gradient 5% acetonitrile 3 min, to 50% in 2 min, to 85% in 15 min, held 3 min, 100 µL/min. As to conditions: column: Zorbax Extend-C18 2.1 x 50 mm; eluents: water / acetonitrile, 0.1% formic acid. An outline of the steps: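 A Zorbax Extend-C18 column (2.1 × 50 mm, 1.8 μm) run at 100 μL/min with water and acetonitrile, both containing 0.1% formic acid, separated mixtures of ~100 pure standards. The HPLC was coupled to a quadrupole time-of-flight mass spectrometer operated in positive and negative ionization mode, with dead and dwell volumes of 40 μL and 900 μL. Each retention time was taken from a computationally picked adduct peak that was then manually inspected.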
For the molecule `Cc1noc2ncn(CC(=O)Nc3ccccc3F)c(=O)c12`, the RP-LC retention time is 732 s. For `CCOc1cc(C(=O)Nc2nc(-c3ccc4c(c3)NC(=O)CO4)c(C)s2)cc(OCC)c1OCC` the value was 1140 s. With `O=C(NCCc1c[nH]c2ccccc12)c1noc2c1CCc1sccc1-2`, the RP-LC retention time was 1050 s. For `CCOc1cc(=O)n2c(c1C(=O)OCc1ccc(Cl)cc1)CCCCC2` the value was 991 s; for `CC1CCc2c(sc3ncnc(SCC(=O)N4CCOCC4)c23)C1` (stereo not drawn), 860 s; for `CCOc1cccc2cc(C(=O)Nc3ccc(S(N)(=O)=O)cc3)oc12`, 747 s.

The molecule `Cc1ccc(Sc2nccnc2N2CCC(C(=O)N3CCN(c4ccccc4C)CC3)CC2)cc1` displayed an RP-LC retention time of 1330 s. The figure for `COc1cccc(N2C(=O)NC3CC2(C)Oc2ccc(OC)cc23)c1` (stereo not drawn) is 787 s; for `Cc1cccc(NC(=O)CSc2cc(N3CCC(C)CC3)ncn2)c1` it is 1040 s.

For the molecule `Cc1ccc(NC(=O)NC2CCN(c3cc(C)cc(C)c3)C2=O)cc1` (stereo not drawn), the RP-LC retention time was determined as 607 s. For `O=C(NCc1ccco1)N1CCN(c2nc3ccccc3nc2C(F)(F)F)CC1` the value was 954 s. With `O=C(NCCOc1ccc(F)cc1)c1ccc2nsnc2c1`, the RP-LC retention time amounted to 786 s.

`Cc1cccc(-c2ncccc2CNS(=O)(=O)c2ccccc2Br)c1`: the RP-LC retention time turned out to be 731 s.

In turn, `CCn1cc(C)c(C(=O)O)c1CC(=O)NCCN1CCN(C)CC1` registered an RP-LC retention time of 561 s. Molecule `COC(=O)c1ncn2c1C(=O)N(Cc1ccccc1Cl)C(C)(C(=O)NCc1ccccc1)C2` (stereo not drawn) yielded an RP-LC retention time of 762 s.

`CC1=NS(=O)(=O)N(C)C=C1C(=O)OCc1nc(-c2ccccc2Cl)no1` displayed an RP-LC retention time of 954 s. For `Cc1ccc(S(=O)(=O)N2CCC(C(=O)NCCc3csc(-c4cccs4)n3)CC2)c(C)c1`, the RP-LC retention time turned out to be 955 s. In turn, `CCc1nc2cc(-c3noc(COc4ccc(OC)cc4)n3)ccc2o1` gave an RP-LC retention time of 1070 s. With `CCC1=NS(=O)(=O)c2cccnc2N1c1ccc(OC)cc1`, the RP-LC retention time was 819 s. For `CC(C)c1cc(C(=O)Nc2ccc(Cl)cc2F)no1` the value was 1140 s; for `CCOC(=O)c1nc(NC2CCN(Cc3ccccc3)CC2)c2ccccc2n1`, 607 s. The molecule `O=C(NCc1ccco1)C1CCCN(S(=O)(=O)c2c[nH]c(C(=O)N3CCCCCC3)c2)C1` (stereo not drawn) gave an RP-LC retention time of 771 s.

As for `Cc1ccc(C)c(N2CCN(c3ccnc(SCC(=O)NCc4ccccc4)n3)CC2)c1`, the RP-LC retention time is 858 s. With `Cc1ccc(C(=O)CC2(O)C(=O)Nc3ccc(Cl)cc32)cc1C` (stereo not drawn), the RP-LC retention time is 772 s. Take `NS(=O)(=O)c1ccc(CCNC(=O)Cc2cc(-c3cc4ccccc4o3)on2)cc1`: the RP-LC retention time came out at 736 s. The figure for `Cc1ccc(-c2nnc(-c3nn(C)c4c3CN(S(=O)(=O)c3cc(F)ccc3C)CC4)o2)cc1` is 1050 s; for `COc1ccccc1C(=O)Nc1nc(-c2ccccc2)cs1` it is 1110 s; for `O=C(NC1CCCCCC1)C1CCN(Cc2cc3ccccc3n2Cc2cccc(Cl)c2)CC1` it is 882 s. `O=S(=O)(Cc1ccccc1)N1CCC2(CC1)CC(OCc1ccccc1)CCO2` (stereo not drawn) had an RP-LC retention time of 1080 s. The figure for `CCOC(=O)c1nnc2c(-c3ccccc3)c(C)nn2c1N` is 828 s.

`CCn1c(N2CCCC(C(=O)NCC3CCN(Cc4cccc(F)c4)CC3)C2)cc(=O)n(C)c1=O` (stereo not drawn) displayed an RP-LC retention time of 635 s. The figure for `COc1ccc(-c2ccc(=O)n(Cc3nc(-c4ccc(Br)cc4)no3)n2)cc1` is 1040 s; for `COc1ccc(OC)c(NC(=O)N2CCN(c3ccc(=O)n(-c4ccc(C)c(C)c4)n3)CC2)c1` it is 880 s; for `O=S(=O)(c1ccc(-c2nnc(C3CCCC3)o2)o1)N1CCN(C2CCCCC2)CC1` it is 696 s. For `CCOC(=O)C(CC)n1cnc2c(cnn2-c2ccccc2)c1=O` (stereo not drawn) the value was 857 s. On to `O=C(C1CCN(S(=O)(=O)c2ccc(-c3noc(-c4ccncc4)n3)cc2)CC1)N1CCCC1`, for which the RP-LC retention time came to 814 s. Regarding `CC1CCN(C(=O)C2=NN(Cc3nc(C4CC4)no3)c3ccccc3S2(=O)=O)CC1`, the RP-LC retention time worked out at 904 s. In turn, `CCCNC(=O)NC1CCN(c2nc3ccccc3n(C)c2=O)CC1` yielded an RP-LC retention time of 715 s. Take `Cc1ccc(-c2ncc(C(=O)NCCC3=CCCCC3)c(-c3ccncc3)n2)cc1`: the RP-LC retention time was determined as 1050 s. The molecule `O=C(COc1ccccc1)N1CCN(Cc2ccccc2)c2ncccc21` yielded an RP-LC retention time of 884 s. With `O=S(=O)(c1ccccc1F)N1CCC(Nc2cccnc2)C1` (stereo not drawn), the RP-LC retention time stood at 716 s.

Consider `Cn1ncc2c3ccccc3n(CC(=O)NCCCN3CCCCCC3)c2c1=O`, for which the RP-LC retention time was 561 s.

`Cc1ccc(-c2cc3c4nnc(SCC(=O)NCCc5ccccc5)n4ccn3n2)cc1C`: the RP-LC retention time came out at 954 s.

Turning to `COC(=O)Cn1c(C2CC(=O)N(c3ccccc3C)C2)nc2ccccc21` (stereo not drawn), the RP-LC retention time was 704 s.

The molecule `CCN(CC)C(=O)C1CCCN(c2ncnc3c2nc2n3CCCCC2)C1` (stereo not drawn) displayed an RP-LC retention time of 708 s.

In turn, `COc1ccc(-c2cc3nn(CC(=O)Nc4cc(C)ccc4C)c(=O)n3c(C)n2)cc1` registered an RP-LC retention time of 975 s.

`Cc1ccc(-c2csc(NC(=O)CN3C(=O)c4ccccc4C3=O)n2)o1` had an RP-LC retention time of 852 s. As to `Cc1ccc(NC(=O)Cn2c(=O)n(-c3cccc(C)c3)c(=O)c3c2cc(C)n3C)cc1`, the RP-LC retention time worked out at 899 s. `Cc1ccc(NC(=O)C2CCCN(S(=O)(=O)c3cc(-c4noc(C5CCC5)n4)cs3)C2)cc1` (stereo not drawn) had an RP-LC retention time of 1170 s.

Consider `CN(C)CCNC(=O)C1CCN(c2nc3ccc(-c4cncnc4)nc3s2)CC1`, for which the RP-LC retention time was 574 s. The figure for `CCc1cc(=O)n(CC(=O)Nc2cc(C)ccc2OC)c(N2CCOCC2)n1` is 854 s; for `Cc1ccc(Nc2c(-c3ccc([N+](=O)[O-])cc3)nc3ccc(C)cn23)cc1` it is 838 s; for `CCOC(=O)C1CCN(c2cc3c(cc2NC(=O)NC2CCCC2)n(C)c(=O)n3C)CC1` it is 777 s. As to `Cc1cc2c(cc1S(=O)(=O)N1CCCC1C(=O)NC1CCCC1)OC(C)C(=O)N2` (stereo not drawn), the RP-LC retention time is 730 s. For `COCCN(CC(=O)N1CCc2sccc2C1COc1cccc(F)c1)C(=O)CC(C)C` (stereo not drawn) the value was 976 s; for `CC1CCN(S(=O)(=O)c2ccc(-c3nnc(C(=O)N4CCCCCC4)o3)cc2)CC1`, 1100 s. As to `O=C(Nc1cccnc1)C1CCCN(S(=O)(=O)c2cc(-c3noc(C4CCC4)n3)cs2)C1` (stereo not drawn), the RP-LC retention time was 893 s. For `O=C(NCc1ccc(Br)cc1)C1CCCN(C(=O)c2cc(-c3ccncc3)n[nH]2)C1` (stereo not drawn) the value was 623 s.

In the case of `O=C1CCCCC(Cc2ccccc2)(C(=O)NCc2ccc(Cl)cc2)N1` (stereo not drawn), the RP-LC retention time is 866 s. `CCOc1ccc(NC(=O)Cn2c(=O)c(CCC(=O)NC3CCCC3)nc3ccccc32)cc1` returned an RP-LC retention time of 860 s. The figure for `CCn1nccc1-c1cccc(-c2noc(-c3cccc(Cl)c3)n2)c1` is 1360 s; for `O=C(Nc1nnc(-c2cc(Cl)sc2Cl)o1)c1ccc([N+](=O)[O-])o1` it is 866 s. As for `CCCNC(=O)C1CCCN(c2ccc(SCC(=O)NCCc3ccc(Cl)cc3)nn2)C1` (stereo not drawn), the RP-LC retention time is 676 s. As to `CN(CC1(C)CCOCC1)C(=O)NC1CCCCC1`, the RP-LC retention time is 749 s. In turn, `COC(=O)c1c(C)[nH]c(C(=O)N2CCC(CC(=O)NCc3ccccc3F)CC2)c1C` showed an RP-LC retention time of 743 s. On to `COc1ccc(CN2C[C@@H]3C(=O)N(Cc4ccc5c(c4)OCO5)C(=O)[C@@H]3C2)c(OC)c1`, for which the RP-LC retention time came out at 691 s. `O=C(c1cccc(Br)c1)N1CCc2nc(-c3ccccc3)ncc2C1`: the RP-LC retention time is 1020 s. In turn, `O=C(Cc1ccccc1Cl)N1CCN(c2cc(-c3cccs3)[nH]n2)CC1` returned an RP-LC retention time of 819 s.

Molecule `COc1ccccc1NC(=O)N1CCN(c2cc(C)nc(N3CCCCC3)n2)CC1` registered an RP-LC retention time of 695 s. `O=C(C1CCN(c2ncnc3c2oc2ccccc23)CC1)N1CCN(c2cccc(Cl)c2)CC1`: the RP-LC retention time was determined as 930 s. `Cc1ccc(CN2CCC(c3nc(-c4cnccn4)n[nH]3)CC2)s1` came in with an RP-LC retention time of 570 s. The molecule `CN(C)S(=O)(=O)c1ccc(COc2ccc(F)cc2)o1` showed an RP-LC retention time of 875 s. For `O=C(c1ccc(Cl)s1)N1CC(c2nc(-c3cccc(C(F)(F)F)c3)no2)C1`, the RP-LC retention time was 1090 s.

Consider `CCOc1ccc(C2Cn3nnc(-c4nc(-c5ccc(C)cc5)no4)c3CO2)cc1` (stereo not drawn), for which the RP-LC retention time was determined as 1250 s. The molecule `O=C1C(NS(=O)(=O)Cc2cc(F)cc(F)c2)CCN1c1ccccc1` (stereo not drawn) yielded an RP-LC retention time of 914 s. Molecule `O=C1NCCCn2cc(S(=O)(=O)NCc3ccc(OC(F)(F)F)cc3)cc21` had an RP-LC retention time of 740 s.

The molecule `O=C(c1ccccc1)N1CCC(n2c(-c3ccco3)nc3cccnc32)C1` (stereo not drawn) displayed an RP-LC retention time of 716 s. Turning to `COC(=O)COC(=O)c1cn(-c2ccc(F)cc2)c(=O)c2ccccc12`, the RP-LC retention time was 919 s.
